From US20110100079A1, “METHOD FOR IMPARTING STRESS TOLERANCE TO PLANT” (priority 2007, published 2011)

Assays:
Type in all cases: in vivo
[1] = test system: potato; assay: Example 9 drying stress test (potato), soil culture; conditions: 23° C., leaf, 100 ppm, 2 weeks; for Fresh weight, relative value (untreated plot = 100), Test 1 / Fresh weight, relative value (untreated plot = 100), Test 4 / Fresh weight, relative value (untreated plot = 100), Test 2 / Fresh weight, relative value (untreated plot = 100), Test 3: potato soil culture; for Fresh weight, relative value (untreated plot = 100), Test 1: EC 1, pF 2.8, two-leaf stage; for Fresh weight, relative value (untreated plot = 100), Test 4: EC 1, pF 3.5, five-leaf stage; for Fresh weight, relative value (untreated plot = 100), Test 2: EC 1, pF 3.5, two-leaf stage; for Fresh weight, relative value (untreated plot = 100), Test 3: EC 1, pF 4.1, two-leaf stage; for Fresh weight, relative value (untreated plot = 100), Comparison 1: stress-free: potato soil culture, EC 1, pF 1.7, two-leaf stage
Protocol: The environmental conditions in a climatic chamber were controlled so as to have a temperature of 23° C., an illuminance by a fluorescent light of 5000 Lux, and a daily light-dark cycle of a 16-hour light period and an 8-hour dark period. Potatoes as prepared above were transplanted in size-5 (15 cm) pots. During the test period, the pF value was controlled by adding a suitable amount of tap water once a day so as to attain a specific drying stress value. A treatment solution containing a compound of Table 5 in a specific concentration (the remainder was water) was prepared and sprayed onto the leaves or applied to the underground portions. […] A comparative example was constructed to reflect the drying stress-free optimum cultivation conditions to investigate the plant energizing ability. […] Moreover, when the products of the present invention and the comparative products were compared, the stress tolerance imparting ability of the products of the present invention was higher in respective drying stress conditions.

[2] = test system: “Momotaro” tomato; assay: Example 6 salt stress test (tomato), hydroponic culture; conditions: 23° C., leaf, 100 ppm, 2 weeks; for Fresh weight, relative value (untreated plot = 100), Test 5 / Fresh weight, relative value (untreated plot = 100), Test 8 / Fresh weight, relative value (untreated plot = 100), Test 6 / Fresh weight, relative value (untreated plot = 100), Test 7: hydroponic culture; for Fresh weight, relative value (untreated plot = 100), Test 5: EC 2.7 mS/cm; for Fresh weight, relative value (untreated plot = 100), Test 5 / Fresh weight, relative value (untreated plot = 100), Test 6 / Fresh weight, relative value (untreated plot = 100), Test 7 / Fresh weight, relative value (untreated plot = 100), Comparison 2: two-leaf stage; for Fresh weight, relative value (untreated plot = 100), Test 8 / Fresh weight, relative value (untreated plot = 100), Test 6: EC 3.9 mS/cm; for Fresh weight, relative value (untreated plot = 100), Test 8: five-leaf stage; for Fresh weight, relative value (untreated plot = 100), Test 7: EC 4.8 mS/cm; for Fresh weight, relative value (untreated plot = 100), Comparison 2: stress-free: hydroponic culture, EC 1.3 mS/cm
Protocol: (§1) (a) Comparative example conditions (stress-free optimum growth conditions) Cultivation temperature: 23° C., EC: 1.3 mS/cm (Otsuka ½A formulation) (b) Example conditions (salt stress conditions) Cultivation temperature: 23° C., EC: 2.7, 3.9, 4.8 mS/cm (cultivation with Kureha gardening soil) (2) Illuminance: 5000 Lux (fluorescent light), light/dark cycle: 16 hours/8 hours (3) Employed soil: Kureha gardening soil manufactured by Kureha Corporation (fertilizer components: N:P:K=0.4:1.9:0.6 g/kg soil) (4) Employed solution culture medium: Otsuka ½A formulation: a mixed solution of Otsuka House No. 1 (N:P:K=10:8:27) 7.5 g/10 L and Otsuka House No. 2 (N:P:K:Ca=10:0:0:23) 5 g/10 L, total nitrogen: 130 ppm, phosphoric acid: 60 ppm, potassium: 203 ppm) (5) Cultivation period: 2 weeks (6) Plant preparation: A 50-cell tray was filled with Kureha gardening soil manufactured by Kureha Corporation (fertilizer components: N:P:K=0.4:1.9:0.6 g/kg soil), and seeds of a “Momotaro” tomato or tubers of a “Danshaku” potato were sowed, thinly covered with Kureha gardening soil, and sufficiently watered to allow the seeds or the tubers to sprout. When the leaves in the 2-leaf stage or the 5-leaf stage fully unfolded, the soil on the tomato roots or the potato roots was carefully washed away with running water, and a test was performed. (7) Test chemicals: POE (20) sorbitan monolauric acid ester: Reodol TW-L120 (Kao Corporation) POE (20) sorbitan monopalmitic acid ester: Reodol TW-P120 (Kao Corporation) POE (20) sorbitan monostearic acid ester: Reodol TW-S120 (Kao Corporation) POE (20) sorbitan monooleic acid ester: Reodol TW-O120 (Kao Corporation) Sorbitan monooleic acid ester: Emasol 0-10(F) (Kao Corporation) POE (6) sorbitan monooleic acid ester: Reodol TW-O106 (Kao Corporation) Alkyl (number of carbon atoms: 10) polyglucoside: AG-10LK (Kao Corporation) Alkyl (number of carbon atoms: 12 to 14) polyglucoside: AG-124 (Kao Corporation) Sucrose fatty acid ester (number of carbon atoms: C18, HLB: 5): S-570 (Mitsubishi-Kagaku Foods Corporation) Sucrose fatty acid ester (number of carbon atoms: C18, HLB: 9): S-970 (Mitsubishi-Kagaku Foods Corporation) Sucrose fatty acid ester (number of carbon atoms: C18, HLB: 11): S-1170 (Mitsubishi-Kagaku Foods Corporation) Sucrose fatty acid ester (number of carbon atoms: C18, HLB: 15): 5-1570 (Mitsubishi-Kagaku Foods Corporation) Sucrose fatty acid ester (number of carbon atoms: C16, HLB: 15): P-1570 (Mitsubishi-Kagaku Foods Corporation) Sucrose fatty acid ester (number of carbon atoms: C18:1, HLB: 15): O-1570 (Mitsubishi-Kagaku Foods Corporation) (8) Amount of treatment solution applied: 10 ml/specimen for leaf spraying, 250 ml/specimen for hydroponic culture (treatment of underground portion) (9) 50 ml/specimen for soil culture (treatment of underground portion)
The environmental conditions in a climatic chamber were controlled so as to have a temperature of 23° C., an illuminance by a fluorescent light of 5000 Lux, and a daily light-dark cycle of a 16-hour light period and an 8-hour dark period. Tomatoes as prepared above were planted in 250 ml polyethylene bottles each filled with a solution culture medium having a different EC value. Different EC values were achieved by taking a ½ Otsuka A formulation having an EC value of 1.3 as a standard and suitably increasing the fertilizer concentration through proportional counting. A treatment solution containing a compound of Table 1 in a specific concentration (the remainder was water) was prepared and sprayed onto the leaves or applied to the underground portion. In each test plot, 10 specimens were prepared for replication, and the average of the fresh weight of each specimen 2 weeks after the beginning of the test was calculated and expressed as a relative value where “100” indicates a result identical to that of the untreated plot of a given EC condition. […]

[3] = test system: “Momotaro” tomato; assay: Example 6 salt stress test (tomato), soil culture; conditions: 23° C., leaf, 100 ppm, 2 weeks; for Fresh weight, relative value (untreated plot = 100), Test 1 / Fresh weight, relative value (untreated plot = 100), Test 4 / Fresh weight, relative value (untreated plot = 100), Test 2 / Fresh weight, relative value (untreated plot = 100), Test 3: soil culture; for Fresh weight, relative value (untreated plot = 100), Test 1: EC 1.3 mS/cm; for Fresh weight, relative value (untreated plot = 100), Test 1 / Fresh weight, relative value (untreated plot = 100), Test 2 / Fresh weight, relative value (untreated plot = 100), Test 3 / Fresh weight, relative value (untreated plot = 100), Comparison 1: pF 1.7, two-leaf stage; for Fresh weight, relative value (untreated plot = 100), Test 4 / Fresh weight, relative value (untreated plot = 100), Test 2: EC 2 mS/cm; for Fresh weight, relative value (untreated plot = 100), Test 4: pF 1.7, five-leaf stage; for Fresh weight, relative value (untreated plot = 100), Test 3: EC 3 mS/cm; for Fresh weight, relative value (untreated plot = 100), Comparison 1: stress-free: soil culture, EC 1 mS/cm
Protocol: (1) A. soil culture (a) Comparative example conditions (stress-free optimum growth conditions) Cultivation temperature: 23° C., EC: 1.0 mS/cm (cultivation with Kureha gardening soil), pF value: 1.7 (capillaries in a saturated state) (b) Example conditions (salt stress conditions) Cultivation temperature: 23° C., EC: 1.3, 2.0, 3.0 mS/cm (cultivation with Kureha gardening soil), pF value: 1.7 (capillaries in a saturated state)
as §1
The environmental conditions in a climatic chamber were controlled so as to have a temperature of 23° C., an illuminance by a fluorescent light of 5000 Lux, and a daily light-dark cycle of a 16-hour light period and an 8-hour dark period. Tomatoes as prepared above were transplanted in size-3 (9 cm) pots. During the test period, the EC value was controlled by adding a suitable amount of a 10% NaCl solution once a day so as to attain a specific salt stress value. A treatment solution containing a compound of Table 1 in a specific concentration (the remainder was water) was prepared and sprayed onto the leaves or applied to the underground portions. […]

Substance | Fresh weight, relative value (untreated plot = 100), Test 1 [1] | Fresh weight, relative value (untreated plot = 100), Test 4 [1] | Fresh weight, relative value (untreated plot = 100), Test 2 [1] | Fresh weight, relative value (untreated plot = 100), Test 3 [1] | Fresh weight, relative value (untreated plot = 100), Comparison 1 [1] | Fresh weight, relative value (untreated plot = 100), Test 5 [2] | Fresh weight, relative value (untreated plot = 100), Test 8 [2] | Fresh weight, relative value (untreated plot = 100), Test 6 [2] | Fresh weight, relative value (untreated plot = 100), Test 7 [2] | Fresh weight, relative value (untreated plot = 100), Comparison 2 [2] | Fresh weight, relative value (untreated plot = 100), Test 1 [3] | Fresh weight, relative value (untreated plot = 100), Test 4 [3] | Fresh weight, relative value (untreated plot = 100), Test 2 [3] | Fresh weight, relative value (untreated plot = 100), Test 3 [3] | Fresh weight, relative value (untreated plot = 100), Comparison 1 [3]
Alkyl (C10) polyglycoside [Product of present invention 15] | 121 | 134 | 142 | 121 | 102 | 125 | 138 | 145 | 125 | 101 | 121 | 134 | 142 | 121 | 101
POE (20) sorbitan monolauric acid ester [Product of present invention 12] | 128 | 145 | 143 | 129 | 101 | 136 | 147 | 160 | 135 | 101 | 131 | 146 | 155 | 133 | 101
